Reference: patent US20170029531A1, “INHIBITION OF LACTATE DEHYDROGENASE 5 (LDH-5) BINDING, INCORPORATION, INTERNALIZATION AND/OR ENDOCYTOSIS TO IMMUNE CELLS” (Seattle Children's Hospital (dba Seattle Children's …, priority 2014, published 2017)

Legend:
T cells and NK cells = assay: Internalization of LDH-A488 by T cells and NK cells of human PBMC; format: cell-based; conditions: 10 ug/mL LDH-A488, 30 min, 37° C., IL-2 cultured PBMC
Procedure: FIG. 33. Human PBMC were isolated from healthy human blood via Ficoll gradient. PBMC were cultured for 24 h in RPMI+10% FBS supplemented with 1000 U/mL IL-2. Experimental wells were pulsed with 10 ug/mL LDH-A488 for 30 min (control wells received no LDH) at 37° C. Cells were treated for 2 min with 0.5M acetic acid+150 mM NaCl (pH 2.5), followed by 4 subsequent washes in RPMI+10% FBS. Cells were stained with antibodies directed against CD4, CD8, CD28, and CD95 to delineate T cell subsets (CD28+CD95−, Naïve, Na; CD28+CD95+, central memory, CM; CD28−CD95+, effector memory, EM) or against CD3, CD56, and CD16 to delineate NK cell subsets (CD3-CD56hiCD16−; CD3−CD56dimCD16−; CD3−CD56dimCD16+). Frequency and MFI of A488 was corrected against control (no LDH pulse). Shown are 10 data points: 2 patients on 2 different days (in duplicate), and 1 patient on one day in duplicate.
Human PBMC were isolated from healthy human blood via Ficoll gradient. PBMC were cultured for 24 h in RPMI+10% FBS supplemented with 1000 U/mL IL-2. Experimental wells were pulsed with 10 ug/mL LDH-A488 for 30 min (control wells received no LDH) at 37° C. Cells were treated for 2 min with 0.5M acetic acid+150 mM NaCl (pH 2.5), followed by 4 subsequent washes in RPMI+10% FBS. […]

Tumor cells = assay: LDH-5 internalization by tumor cells, flow cytometry (FIGS. 16-19); format: cell-based; conditions: FIG. 16
Procedure: FIG. 17. Tumor cells internalize LDH-5, which can be reduced by antibody blocking. 10 ug/ml of LDH5 specific monoclonal antibody was added to cells 1 hour prior to culture with LDH5 as described above and evaluated for internalization using flow cytometry to evaluate fluorescence.
FIG. 19. LDH-5 internalization is receptor mediated and Clathrin dependent. LDH5 internalization is reduced with receptor mediated endocytosis inhibitors.
LDH5 internalization is reduced with receptor mediated endocytosis inhibitors. This supports that internalization is mediated by a specific receptor, as opposite to bulk phagocytosis.

[1] = LDH activity after freeze/thaw (colorimetric LDH activity assay); format: physicochemical; conditions: FIG. 12
Procedure: Supernatants and patient sera were analyzed for LDH enzymatic activity using a commercially available colorimetric assay according to the manufacturer's instructions (Sigma-Aldrich). Standard curves were generated using purified native LDH5.

[2] = tested on: glioblastoma cell line U87; assay: IL-6 gene expression in glioblastoma cell line U87; format: cell-based

**Q.** For “LDH5: purified native lactate dehydrogenase isoenzyme 5, alpha only tetramer; fluorescently labeled in uptake tests”, which “Internalization of LDH5 by T cells and NK cells” value (T cells and NK cells) is on record?
**A.** The value was “internalize”.

**Q.** And the “Internalization of LDH-5 by tumor cells” value (Tumor cells)?
**A.** The value was “internalize”.

**Q.** What about the “LDH-5 activity following freeze/thaw” value [1] of the same substance?
**A.** The value was “significantly reduced”.

**Q.** And the IL-6 gene expression [2]?
**A.** The IL-6 gene expression was “induces IL-6 gene expression”.
